US7605272B2, “IGF-1R inhibitor” (Kyowa Hakko Kirin Co., Ltd., priority 2005, dated 2009)
Structures can show the parent of a compound that is named as a salt. Where two headings read alike, the source gives them in different places.

What was measured:
NCI-H929 = assay: Cytostatic activity on human multiple myeloma cell line NCI-H929 (WST-1); format: cell-based; details: for inhibition at 1 µM: Homo sapiens, NCI-H929, 72 h, read-out: cytostatic rate (%) H929 (1 μmol/L)
Summary of the method: (§1)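 Cells pre-cultured 24 h at 37 °C, 5% CO2, then exposed 72 h to compound at final 1 or 10 μmol/L (0.1% DMSO). WST-1 added for 2 h, absorbance at 450 nm (ref 690 nm). Cytostatic rate = 100 minus relative growth, with DMSO control as 100% and blank as 0%.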

KMS-11 = assay: Cytostatic activity on human multiple myeloma cell line KMS-11 (WST-1); format: cell-based; details: for inhibition at 1 µM: Homo sapiens, KMS-11, 72 h, read-out: cytostatic rate (%) KMS-11 (1 μmol/L)
Summary of the method: as §1

AsPC-1 = assay: Cytostatic activity on human pancreatic cancer cell line AsPC-1 (WST-1); format: cell-based; details: for inhibition at 10 µM: Homo sapiens, ASPC1, 72 h
Method: (§2) The cytostatic rates of the test compound on the human pancreatic cancer cell line AsPC-1 and the human colon cancer cell line Colo205 were determined in the following manner.
(§3) For culturing AsPC-1, RPMI 1640 medium containing 20% fetal bovine serum, 1 mmol/L sodium pyruvate, 10 mmol/L HEPES, 4.5 g/L glucose and penicillin/streptomycin (1:1). The Colo205 cell was cultured using RPMI 1640 medium containing 10% fetal bovine serum, 1 mmol/L sodium pyruvate, 10 mmol/L HEPES, 4.5 g/L glucose and penicillin/streptomycin (1:1) was used. Each 80 μL of the AsPC-1 cell having a concentration of 5×10^4 cells/mL (or the Colo205 having a concentration of 5×10^4 cells/mL) was inoculated to wells of a TC MICROWELL 96F plate (Nalge Nunc International, Catalog No. 167008) and was cultured in a 5% carbon dioxide gas incubator at 37° C. for 24 hours. Each 20 μL of a solution of the test compound in DMSO which was prepared to make the final concentration to 1 μmol/L or 10 μmol/L, was added to each well. Each 20 μL of DMSO was added to the control well and the blank well to a final concentration of 0.1%. After adding the test compound, the cell was incubated in a 5% carbon dioxide gas incubator at 37° C. for 72 hours except for the blank well. After adding 20 μL of WST-1 reagent which was diluted to 50% by RPMI medium to each well, the cells were further incubated at 37° C. for 2 hours. Then, the absorbances at 450 nm (reference wavelength: 690 nm) were determined with a microplate spectrophotometer SPECTRA max 340PC. The cytostatic rate (%) was then determined in the similar manner to the above multiple myeloma cell lines.

Colo205 = assay: Cytostatic activity on human colon cancer cell line Colo205 (WST-1); format: cell-based; details: for inhibition at 10 µM: Homo sapiens, COLO 205, 72 h
Method: as §2, §3

IGF-1R = biological target: T1, IGF-1R (Homo sapiens, UniProt P08069); assay: IGF-1R inhibitory activity (kinase reaction, time-resolved fluoroimmunoassay); format: biochemical; details: IGF-1R active recombinant enzyme, test compound 10 μmol/L
T1 construct: purchased Upstate Co. 14-465
Summary of the method: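 Compounds were tested at a single 10 μmol/L concentration. Each was incubated with recombinant IGF-1R (200 μg/L), 10 mmol/L ATP, MgCl2/MnCl2 and Na3VO4 (pH 7.5) on immobilized poly(Glu-Tyr) peptide for 30 min at 24° C. Eu-anti-phosphotyrosine time-resolved fluorescence (340/615 nm) gave relative activity against no-compound and no-enzyme wells, reported as % inhibition.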

[1] = 10 μmol/L, read-out: cytostatic rate (%) AsPC-1 (10 μmol/L)
[2] = 10 μmol/L, read-out: cytostatic rate (%) Colo205 (10 μmol/L)
[3] = NCI-H929 cells, test compound 1 μmol/L, WST-1
[4] = KMS-11 cells, test compound 1 μmol/L, WST-1
[5] = AsPC-1 cells, test compound 10 μmol/L, WST-1, read-out: cytostatic rate (%) AsPC-1 (10 μmol/L)
[6] = Colo205 cells, test compound 10 μmol/L, WST-1, read-out: cytostatic rate (%) Colo205 (10 μmol/L)

T1 sequence (P08069 959-1367 limits assumed): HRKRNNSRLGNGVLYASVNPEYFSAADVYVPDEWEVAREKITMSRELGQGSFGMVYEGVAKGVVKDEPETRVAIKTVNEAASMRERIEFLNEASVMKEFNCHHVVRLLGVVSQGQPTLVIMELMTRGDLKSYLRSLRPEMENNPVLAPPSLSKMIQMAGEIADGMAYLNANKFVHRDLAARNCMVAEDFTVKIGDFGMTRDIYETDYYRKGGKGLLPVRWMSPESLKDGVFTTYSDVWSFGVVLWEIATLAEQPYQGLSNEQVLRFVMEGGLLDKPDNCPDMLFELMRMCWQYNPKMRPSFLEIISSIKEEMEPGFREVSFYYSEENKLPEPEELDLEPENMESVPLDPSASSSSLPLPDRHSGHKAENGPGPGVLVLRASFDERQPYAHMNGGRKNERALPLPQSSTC

Structure (SMILES)	inhibition at 1 µM (NCI-H929; 1 μmol/L, 72 hours) [%]	inhibition at 1 µM (KMS-11; 1 μmol/L, 72 hours) [%]	inhibition at 10 µM (AsPC-1; [1]) [%]	inhibition at 10 µM (Colo205; [2]) [%]	inhibition at 10 µM (IGF-1R) [%]	cytostatic rate (%) H929 (1 μmol/L) (NCI-H929; 1 μmol/L, 72 hours) [%]	cytostatic rate (%) KMS-11 (1 μmol/L) (KMS-11; 1 μmol/L, 72 hours) [%]	cytostatic rate (%) AsPC-1 (10 μmol/L) (AsPC-1; 10 μmol/L, 72 hours) [%]	cytostatic rate (%) Colo205 (10 μmol/L) (Colo205; 10 μmol/L, 72 hours) [%]	inhibitory activity (%) at 10 μmol/L (IGF-1R) [%]	inhibition at 1 µM (NCI-H929; [3]) [%]	inhibition at 1 µM (KMS-11; [4]) [%]	inhibition at 10 µM (AsPC-1; [5]) [%]	inhibition at 10 µM (Colo205; [6]) [%]
Cc1ccsc1C(=O)Nc1cc(N2CCOCC2)ccc1/C=C/c1n[nH]c2ccccc12 [Compound 247, (E)-N-{2-[2-(1H-indazol-3-yl)vinyl]-5-morpholin-4-ylphenyl}-3-methylthiophene-2-carboxamide monohydrochloride]	127	133	117	123	102	–	–	–	–	–	–	–	–	–
Cc1ccsc1C(=O)Nc1cc(CN(CCO)CCN2CCOCC2)ccc1/C=C/c1n[nH]c2ccccc12 [Compound 253, (E)-N-{5-[N-(2-hydroxyethyl)-2-(morpholin-4-yl)ethylaminomethyl]-2-[2-(1H-indazol-3-yl)vinyl]phenyl}-3-methylthiophene-2-carboxamide]	119	109	100	122	98.7	–	–	–	–	–	–	–	–	–
CCN(CC)CCOc1ccc(/C=C/c2n[nH]c3ccccc23)c(NC(=O)c2sccc2C)c1OC [Compound 263, (E)-N-{3-(2-diethylaminoethoxy)-6-[2-(1H-indazol-3-yl)vinyl]-2-methoxymephenyl}-3-methylthiophene-2-carboxamide]	–	–	–	–	–	116.0	126.2	103.4	120.5	100.9	–	–	–	–
Nc1cccc2c1C(=O)N(c1cc(C(=O)N3CCOCC3)ccc1/C=C/c1n[nH]c3ccccc13)C2=O [Compound 288, (E)-4-amino-N-{2-[2-(1H-indazol-3-yl)vinyl]-5-(morpholin-4-ylcarbonyl)phenyl}isoindole-1,3-dione]	118	109	94.5	120	97.9	–	–	–	–	–	–	–	–	–
Cc1ccsc1C(=O)Nc1cc(CN2CCN(CC(C)(C)O)CC2)ccc1/C=C/c1n[nH]c2ccccc12 [Compound 312, (E)-N-{5-[4-(2-hydroxy-2-methylpropyl)piperazin-1-ylmethyl]-2-[2-(1H-indazol-3-yl)vinyl]phenyl}-3-methylthiophene-2-carboxamide]	–	–	–	–	105	–	–	–	–	–	115	108	101	120
Cc1ccsc1C(=O)Nc1cc(CN2CCN(CCOCCO)CC2)ccc1/C=C/c1n[nH]c2ccccc12 [Compound 318, (E)-N-{5-{4-[2-(2-hydroxyethoxy)ethyl]piperazin-1-ylmethyl}-2-[2-(1H-indazol-3-yl)vinyl]-phenyl}-3-methylthiophene-2-carboxamide]	–	–	–	–	94.7	–	–	–	–	–	122	102	103	120
